This note sets out measurements from patent publication US12404285B2, “KRAS G12D proteolysis targeting chimeras” (PAQ Therapeutics Inc., priority 2022, dated 2025).

The target of the experiment is T1, KRAS in AGS cells (KRAS G12D mutant cell line) or LS180 cells (KRAS G12D mutant cell line) (Homo sapiens, UniProt P01116, G12D).
T1 construct: CRL-187 (LS180) (so in the source); host or cells: AGS or LS180 cells
T1 sequence (P01116 1-188 isoform P01116-2 G12D): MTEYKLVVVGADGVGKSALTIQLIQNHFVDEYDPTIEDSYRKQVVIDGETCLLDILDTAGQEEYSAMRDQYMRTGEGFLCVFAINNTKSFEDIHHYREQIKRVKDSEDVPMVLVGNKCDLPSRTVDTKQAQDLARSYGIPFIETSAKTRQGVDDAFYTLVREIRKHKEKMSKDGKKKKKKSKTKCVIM
The experiment in a line: KRAS Western Blot (WB) assay. It counts as cell-based. Conditions: KRAS degradation, 24 hours incubation, normalized to β-actin. The protocol: Day 1. Seeded AGS cells (KRAS G12D mutant cell line, ATCC, CRL-1739) or LS180 cells (KRAS G12D mutant cell line, ATCC, CRL-187) into 6-well plates (cell density: 3×10^5 cells/well/2 ml medium) in Ham's F-12 medium (Invitrogen, 11765-054) or Eagle's Minimum Essential Medium (ATCC, 30-2003) and incubated overnight at 37° C. and 5% CO2.
Day 2. Aspirated 1 ml medium from each well and added 1 ml medium containing DMSO or test compound into the well to achieve the desired final concentration. Mixed well by gentle shaking and incubated for 24 hours.
Day 3. Aspirated media from plates; washed cells with 2 ml 4° C. PBS (Solarbio, P1020-500) and aspirated the PBS. Then added 100 μl 4° C. […] lysis buffer (Boston BioProducts BP-115D) with protease and phosphatase inhibitors at vendor recommended concentrations (Roche 05892791001 and 04906837001) into each well to lyse the cells, and incubated for 20 minutes at 4° C. Cell lysate was collected into 1.5 ml Eppendorf tube, and the lysate was sonicated at 4° C. for 2 minutes (5 second pulse at 30% power with 10 second intermissions). The lysate was centrifuged at 12,000 rpm for 15 minutes at 4° C. The supernatant was transferred to a fresh Eppendorf tube, and protein concentration was quantified using a BCA kit (Solarbio, PC0020-500). Mixed the cell lysate and 5×NuPAGE SDS Loading Buffer (Beyotime, P0015L), and heated at 95° C. for 10 minutes in a heat block. Prepared samples were stored at −80° C. until SDS-PAGE procedure.
Day 4. Loaded 15 μg protein from each sample onto NuPAGE® Novex 4-12% Bis-Tris Midi Gel, 26 W (Invitrogen, WG1403BOX) and ran the gel at 120V for 1.5 hours in 1×NuPAGE® MOPS SDS Running Buffer (Novex, NP0001). Electrotransferred to nitrocellulose membrane using dry transfer method (iBlot 2 Transfer Stacks, nitrocellulose, IB23001) with a program consisting of 20V for 1 minute, 23V for 4 minutes and 25V for 2 minutes. Blocked the membrane with 5% BSA (Solarbio, A8020) in 1×TBST (CST, 9997S) for 1 hour at room temperature. Incubated with KRAS antibody (LSBio, LS-C175665, clone 2C1) at 1:1000 dilution and β-actin antibody at 1:1000 dilution (CST, 4970S) in TBST containing 1% BSA (Solarbio, A8020) at 4° C. overnight.
Day 5. Washed nitrocellulose membrane three times with 1×TBST for 10 minutes each at room temperature. Incubated with fluorescently labeled secondary antibodies at 1:5000 dilution in TBST containing 1% BSA (anti-rabbit IgG, Licor, 926-32211; anti-mouse IgG, LI-COR, 926-68070) for 1 hour at room temperature. Washed membrane three times with TBST, 10 minutes each. Scanned the membrane on LiCOR scanner for fluorescent signal(s) and quantified KRAS bands and β-actin bands for normalization.
The data are reported in Table 2, wherein “A” indicates a DC50 of less than 1 μM; “B” indicates a DC50 of greater than or equal to 1 μM and less than 10 μM; and “C” indicates a DC50 of greater than or equal to 10 μM.
For orientation: Immunoblotting shows a protein as a band on a membrane.
Take `C#Cc1c(F)ccc2cc(O)cc(-c3ncc4c(N5C[C@H]6CC[C@@H](C5)N6)nc(OC[C@@]56CCCN5[C@H](COC(=O)NCCCCc5ccc7c(c5)n(C)c(=O)n7C5CCC(=O)NC5=O)CC6)nc4c3F)c12` (stereo partly drawn) [Compound 006, ((3S,7aS)-7a-(((4-((1R,5S)-3,8-diazabicyclo[3.2.1]octan-3-yl)-7-(8-ethynyl-7-fluoro-3-hydroxynaphthalen-1-yl)-8-fluoropyrido[4,3-d]pyrimidin-2-yl)oxy)methyl)hexahydro-1H-pyrrolizin-3-yl)methyl (4-(1-(2,6-dioxopiperidin-3-yl)-3-methyl-2-oxo-2,3-dihydro-1H-benzo[d]imidazol-5-yl)butyl)carbamate]: the DC50 entry is “C (DC50 greater than or equal to 10 μM)”. Regarding `C#Cc1c(F)ccc2cc(O)cc(-c3ncc4c(N5CC6CCC(C5)N6)nc(OC[C@@]56CCCN5[C@H](COC(=O)NCCCCCCCCCCNc5ccc7c(c5)C(=O)N(C5CCC(=O)NC5=O)C7=O)CC6)nc4c3F)c12` (stereo partly drawn) [Compound 015, [(3S,8S)-8-[[4-(3,8-diazabicyclo[3.2.1]octan-3-yl)-7-(8-ethynyl-7-fluoro-3-hydroxy-1-naphthyl)-8-fluoro-pyrido[4,3-d]pyrimidin-2-yl]oxymethyl]-1,2,3,5,6,7-hexahydropyrrolizin-3-yl]methyl N-[10-[[2-(2,6-dioxo-3-piperidyl)-1,3-dioxo-isoindolin-5-yl]amino]decyl]carbamate], the DC50 entry was “A (DC50 less than 1 μM)”.

As for `C#Cc1c(F)ccc2cc(O)cc(-c3ncc4c(N5CC6CCC(C5)N6)nc(OC[C@@]56CCCN5[C@H](COC(=O)NCCCCCCCCCCc5cccc7c5n(C)c(=O)n7C5CCC(=O)NC5=O)CC6)nc4c3F)c12` (stereo partly drawn) [Compound 014, [(3S,8S)-8-[[4-(3,8-diazabicyclo[3.2.1]octan-3-yl)-7-(8-ethynyl-7-fluoro-3-hydroxy-1-naphthyl)-8-fluoro-pyrido[4,3-d]pyrimidin-2-yl]oxymethyl]-1,2,3,5,6,7-hexahydropyrrolizin-3-yl]methyl N-[10-[1-(2,6-dioxo-3-piperidyl)-3-methyl-2-oxo-benzimidazol-4-yl]decyl]carbamate], the DC50 entry is “A (DC50 less than 1 μM)”. On to `C#Cc1c(F)ccc2cc(O)cc(-c3ncc4c(N5CC6CCC(C5)N6)nc(OC[C@@]56CCCN5[C@H](COC(=O)NCCCCCCCCCNc5cccc7c5C(=O)N(C5CCC(=O)NC5=O)C7=O)CC6)nc4c3F)c12` (stereo partly drawn) [Compound 016, ((3S,7aS)-7a-(((4-(3,8-diazabicyclo[3.2.1]octan-3-yl)-7-(8-ethynyl-7-fluoro-3-hydroxynaphthalen-1-yl)-8-fluoropyrido[4,3-d]pyrimidin-2-yl)oxy)methyl)hexahydro-1H-pyrrolizin-3-yl)methyl (9-((2-(2,6-dioxopiperidin-3-yl)-1,3-dioxoisoindolin-4-yl)amino)nonyl)carbamate], for which the DC50 entry is on record as “A (DC50 less than 1 μM)”. On to `C#Cc1c(F)ccc2cc(O)cc(-c3ncc4c(N5CC6CCC(C5)N6)nc(OC[C@@]56CCCN5[C@H](COC(=O)NCCCCCCCCCc5cccc7c5n(C)c(=O)n7C5CCC(=O)NC5=O)CC6)nc4c3F)c12` (some centres unmarked) [Compound 012], for which the DC50 entry was “A (DC50 less than 1 μM)”. Take `C#Cc1c(F)ccc2cc(O)cc(-c3ncc4c(N5CC6CCC(C5)N6)nc(OC[C@@]56CCCN5[C@H](COC(=O)NCCCCCCNc5cccc7c5C(=O)N(C5CCC(=O)NC5=O)C7=O)CC6)nc4c3F)c12` (stereo partly drawn) [Compound 021, [(3S,8S)-8-[[4-(3,8-diazabicyclo[3.2.1]octan-3-yl)-7-(8-ethynyl-7-fluoro-3-hydroxy-1-naphthyl)-8-fluoro-pyrido[4,3-d]pyrimidin-2-yl]oxymethyl]-1,2,3,5,6,7-hexahydropyrrolizin-3-yl]methylN-[6-[[2-(2,6-dioxo-3-piperidyl)-1,3-dioxo-isoindolin-4-yl]amino]hexyl]carbamate]: the DC50 entry was “B (DC50 greater than or equal to 1 μM and less than 10 μM)”. Turning to `C#Cc1c(F)ccc2cc(O)cc(-c3ncc4c(N5CC6CCC(C5)N6)nc(OCC56CCCN5[C@H](COC(=O)NCCCCCCCCCNc5cccc7c5C(=O)N(C5CCC(=O)NC5=O)C7=O)CC6)nc4c3F)c12` (mixture of isomers) [Compound 023, (3RS,8RS)-[8-[[4-(3,8-Diazabicyclo[3.2.1]octan-3-yl)-7-(8-ethynyl-7-fluoro-3-hydroxy-1-naphthyl)-8-fluoro-pyrido[4,3-d]pyrimidin-2-yl]oxymethyl]-1,2,3,5,6,7-hexahydropyrrolizin-3-yl]methyl N-[9-[[2-(2,6-dioxo-3-piperidyl)-1,3-dioxo-isoindolin-4-yl]amino]nonyl]carbamate], the DC50 entry is “A (DC50 less than 1 μM)”. For `C#Cc1c(F)ccc2cc(O)cc(-c3ncc4c(N5CC6CCC(C5)N6)nc(OC[C@@]56CCCN5[C@H](COC(=O)NCCc5cccc7c5n(C)c(=O)n7C5CCC(=O)NC5=O)CC6)nc4c3F)c12` (stereo partly drawn) [Compound 004, [(3S,8S)-8-[[4-(3,8-diazabicyclo[3.2.1]octan-3-yl)-7-(8-ethynyl-7-fluoro-3-hydroxy-1-naphthyl)-8-fluoro-pyrido[4,3-d]pyrimidin-2-yl]oxymethyl]-1,2,3,5,6,7-hexahydropyrrolizin-3-yl]methyl N-[2-[1-(2,6-dioxo-3-piperidyl)-3-methyl-2-oxo-benzimidazol-4-yl]ethyl]carbamate], the DC50 result was “C (DC50 greater than or equal to 10 μM)”.

As for `C#Cc1c(F)ccc2cc(O)cc(-c3ncc4c(N5CC6CCC(C5)N6)nc(OC[C@@]56CCCN5[C@H](COC(=O)NCCCCCCCCNc5cccc7c5C(=O)N(C5CCC(=O)NC5=O)C7=O)CC6)nc4c3F)c12` (some centres unmarked) [Compound 018], the DC50 result is “B (DC50 greater than or equal to 1 μM and less than 10 μM)”.

On to `C#Cc1c(F)ccc2cc(O)cc(-c3ncc4c(N5CC6CCC(C5)N6)nc(OC[C@@]56CCCN5[C@H](COC(=O)NCCCc5cccc7c5n(C)c(=O)n7C5CCC(=O)NC5=O)CC6)nc4c3F)c12` (stereo partly drawn) [Compound 003, [(3S,8S)-8-[[4-(3,8-diazabicyclo[3.2.1]octan-3-yl)-7-(8-ethynyl-7-fluoro-3-hydroxy-1-naphthyl)-8-fluoro-pyrido[4,3-d]pyrimidin-2-yl]oxymethyl]-1,2,3,5,6,7-hexahydropyrrolizin-3-yl]methylN-[3-[1-(2,6-dioxo-3-piperidyl)-3-methyl-2-oxo-benzimidazol-4-yl]propyl]carbamate], for which the DC50 result is listed as “C (DC50 greater than or equal to 10 μM)”. With `C#Cc1c(F)ccc2cc(O)cc(-c3ncc4c(N5CC6CCC(C5)N6)nc(OC[C@@]56CCCN5[C@H](COC(=O)NCCOCCOCCOCCNc5cccc7c5C(=O)N(C5CCC(=O)NC5=O)C7=O)CC6)nc4c3F)c12` (stereo partly drawn) [Compound 027, [(3R,8R)-8-[[4-(3,8-diazabicyclo[3.2.1]octan-3-yl)-7-(8-ethynyl-7-fluoro-3-hydroxy-1-naphthyl)-8-fluoro-pyrido[4,3-d]pyrimidin-2-yl]oxymethyl]-1,2,3,5,6,7-hexahydropyrrolizin-3-yl]methyl N-[2-[2-[2-[2-[[2-(2,6-dioxo-3-piperidyl)-1,3-dioxo-isoindolin-4-yl]amino]ethoxy]ethoxy]ethoxy]ethyl]carbamate] the entry was “C (DC50 greater than or equal to 10 μM)”.
